According to patent publication US10080757B2 (WISCONSIN ALUMNI RESEARCH FOUNDATION, priority 2016, dated 2018):
In brackets after ≈: the same amount, converted by molar mass. Read-outs that look alike come from different tables or passages of the source.

Columns and labels:
recombinant MtbUGM = target: T1, recombinant MtbUGM (Mycobacterium tuberculosis, UniProt P9WIQ1); experiment: biochemical; settings: for inhibition at 100 µM: read-out: % inhib MtbUGM (100 μM); for inhibition at 10 µM: read-out: % inhib MtbUGM (10 μM)
T1 construct: made in house
T1 sequence (P9WIQ1 whole entry): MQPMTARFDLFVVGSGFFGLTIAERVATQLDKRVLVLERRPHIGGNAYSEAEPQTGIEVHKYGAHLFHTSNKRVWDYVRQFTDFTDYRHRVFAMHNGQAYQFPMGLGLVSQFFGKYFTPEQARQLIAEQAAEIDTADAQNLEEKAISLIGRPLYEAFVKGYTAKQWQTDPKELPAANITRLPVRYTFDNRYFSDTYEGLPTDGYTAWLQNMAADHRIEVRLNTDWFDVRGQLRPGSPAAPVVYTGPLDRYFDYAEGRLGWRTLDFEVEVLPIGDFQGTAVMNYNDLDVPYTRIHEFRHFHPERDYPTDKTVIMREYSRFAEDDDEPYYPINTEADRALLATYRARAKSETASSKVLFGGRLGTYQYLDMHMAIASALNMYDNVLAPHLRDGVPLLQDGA

C. elegans = C. elegans growth and proliferation; type: in vivo; settings: 250 μM
CeUGM = CeUGM inhibition; type: biochemical, C. elegans
M. smegmatis [1] = experiment: Microplate Alamar Blue Assay (MIC, liquid culture); type: cell-based; settings: Mycolicibacterium smegmatis
Experimental: The culture was diluted to OD600=˜0.02 in LB liquid media and added to 96-well plates at a final volume of 100 μL, with added inhibitor concentrations in two-fold dilutions. Perimeter wells were filled with sterile water. After 24 hours at 37° C. in a shaking incubator, 10 μL of the Alamar Blue reagent was added to each well. The plate was incubated for an additional 4 hours at 37° C., at which point fluorescence emission at 585 nm was measured using a plate reader. The lowest inhibitor concentration at which 99% or greater growth inhibition was observed was determined to be the MIC.

M. smegmatis [2] = experiment: Agar disk diffusion assay; parameters: zone of inhibition: dose or concentration left out as unconfirmed; settings: for Mycobacterial growth inhibition (in words): disk diffusion, solid media
Experimental: M. smegmatis was grown to saturation over 48 hours at 37° C. in Middlebrook 7H9 media with Albumin Dextrose Catalase (ADC) enrichment and 0.05% Tween80. The culture was diluted to OD600=˜0.2 in LB liquid media and 100 μL of dilute culture was spread onto LB agar plates, then allowed to soak into the agar for 1 hour at room temperature. Sterile disks (3 mm diameter) were impregnated with a solution of inhibitor in DMSO (1.5 μL) and placed on top of the bacterial lawn. […] The plates were incubated for 72 hours at 37° C., at which point a lawn of bacteria was visible. Zones of inhibition were measured as the average diameter of the region around a cloning disk where bacterial growth was not visible. For each disk, three diameter measurements were taken and averaged.

[3] = 50 μM, mean of two replicates, read-out: % inhib MtbUGM (50 μM)
[4] = read-out: % inhib MtbUGM (50 μM)

| SMILES | inhibition at 50 µM (recombinant MtbUGM; [3]) [%] | inhibition at 100 µM (recombinant MtbUGM; 100 μM, mean of two replicates) [%] | further results |
| --- | --- | --- | --- |
| O=C(O)CC1Sc2nnc(Cc3ccc(Br)cc3)n2N=C1c1ccc(F)cc1 (centres unmarked) [Compound 23, 2-(3-(4-bromobenzyl)-6-(4-fluorophenyl)-7H-[1,2,4]triazolo[3,4-b][1,3,4]thiadiazin-7-yl)acetic acid] | 25 | 39 |  |
| O=C(O)CC1Sc2nnc(Cc3ccccc3)n2N=C1c1ccc(Cl)cc1 (centres unmarked) [Compound 28, 2-(3-benzyl-6-(4-chlorophenyl)-7H-[1,2,4]triazolo[3,4-b][1,3,4]thiadiazin-7-yl)acetic acid] | 30 | 43 |  |
| O=C(CC1Sc2nnc(Cc3ccc(Br)cc3)n2N=C1c1ccc(Cl)cc1)NS(=O)(=O)c1ccc(Cl)s1 (centres unmarked) [Compound 37] |  |  | inhibition at 10 µM (recombinant MtbUGM): 35%; inhibition at 50 µM (recombinant MtbUGM; [4]): 100%; inhibition at 100 µM (recombinant MtbUGM): 100% |
| O=C(O)CC1Sc2nnc(-c3cccs3)n2N=C1c1ccc(Cl)cc1 (centres unmarked) [Compound 15, 2-(6-(4-chlorophenyl)-3-(thiophen-2-yl)-7H-[1,2,4]triazolo[3,4-b][1,3,4]thiadiazin-7-yl)acetic acid] |  | 50 |  |
| COC(=O)CC1Sc2nnc(Cc3ccc(Br)cc3)n2N=C1c1ccc(Cl)cc1 (centres unmarked) [Compound 14, Methyl-2-(3-(4-bromobenzyl)-6-(4-chlorophenyl)-7H-[1,2,4]triazolo[3,4-b][1,3,4]thiadiazin-7-yl)acetate] |  | 0 | Effective inhibitor of C. elegans growth at 250 μM (C. elegans; Table 8): No |
| Cc1ccc(C2=Nn3c(Cc4ccc(Br)cc4)nnc3SC2CC(=O)O)c(C)c1 (centres unmarked) [Compound 24, 2-(3-(4-bromobenzyl)-6-(2,4-dimethylphenyl)-7H-[1,2,4]triazolo[3,4-b][1,3,4]thiadiazin-7-yl)acetic acid] | 1 | 0 |  |
| Cc1ccc(S(=O)(=O)NC(=O)C(Cc2ccc(I)cc2)Nc2nc(-c3ccc(Cl)c(Cl)c3)cs2)cc1 (centres unmarked) [Compound 7, 2-((4-(3,4-dichlorophenyl)thiazol-2-yl)amino)-3-(4-iodophenyl)-N-tosylpropanamide] |  |  | IC50 (recombinant MtbUGM; Table 2, standard deviation, n = 3): 1 ± 1 µM; CeUGM % Inhibition at 2.5 μM (CeUGM; 2.5 μM): 90.5 ± 0.2%; Effective inhibitor of C. elegans growth at 250 μM (C. elegans; Table 7): No; MIC (M. smegmatis [1]; Table 3, liquid media, at least 99% growth inhibition): 12.5 µM (≈ 8.4 µg/mL); zone of inhibition (M. smegmatis [2]; Mycolicibacterium smegmatis, read-out: Inhibition zone): 6 ± 0.6 mm; Mycobacterial growth inhibition (in words) (M. smegmatis [2]): inactivity |
| O=C(CC1Sc2nnc(Cc3ccc(Br)cc3)n2N=C1c1ccc(Cl)c(Cl)c1)NS(=O)(=O)c1ccccc1 (centres unmarked) [Compound 39] |  |  | inhibition at 10 µM (recombinant MtbUGM): 51%; inhibition at 50 µM (recombinant MtbUGM; [4]): 100%; inhibition at 100 µM (recombinant MtbUGM): 100% |
| COc1ccc(C2=Nn3c(Cc4ccc(Br)cc4)nnc3SC2CC(=O)O)cc1 (centres unmarked) [Compound 22, 2-(3-(4-bromobenzyl)-6-(4-methoxyphenyl)-7H-[1,2,4]triazolo[3,4-b][1,3,4]thiadiazin-7-yl)acetic acid] | 35 | 44 |  |
| O=C(O)CC1Sc2nnc(CCc3ccc(Br)cc3)n2N=C1c1ccc(Cl)cc1 (centres unmarked) [Compound 27, 2-(3-(4-bromophenethyl)-6-(4-chlorophenyl)-7H-[1,2,4]triazolo[3,4-b][1,3,4]thiadiazin-7-yl)acetic acid] | 48 | 69 |  |
| O=C(O)CC1Sc2nnc(-c3cccs3)n2N=C1c1ccc(Cl)c(Cl)c1 (centres unmarked) [Compound 18, 2-(6-(3,4-dichlorophenyl)-3-(thiophen-2-yl)-7H-[1,2,4]triazolo[3,4-b][1,3,4]thiadiazin-7-yl)acetic acid] |  | 80 |  |
| O=C(O)CC1Sc2nnc(Cc3ccc(-c4ccccc4)cc3)n2N=C1c1ccc(Cl)c(Cl)c1 (centres unmarked) [Compound 31, 2-(3-([1,1′-biphenyl]-4-ylmethyl)-6-(3,4-dichlorophenyl)-7H-[1,2,4]triazolo[3,4-b][1,3,4]thiadiazin-7-yl)acetic acid] | 100 | 100 | inhibition at 10 µM (recombinant MtbUGM; 10 μM, mean of two replicates): 50% |
| C=CCNC(=O)CC1Sc2nnc(-c3cccs3)n2N=C1c1ccc(Cl)cc1 (centres unmarked) [Compound 34, N-allyl-2-(6-(4-chlorophenyl)-3-(thiophen-2-yl)-7H-[1,2,4]triazolo[3,4-b][1,3,4]thiadiazin-7-yl)acetamide] |  | 0 |  |
| O=C(O)CC1Sc2nnc(Cc3ccc(-c4ccccc4)cc3)n2N=C1c1ccc(Cl)cc1 (centres unmarked) [Compound 29, 2-(3-([1,1′-biphenyl]-4-ylmethyl)-6-(4-chlorophenyl)-7H-[1,2,4]triazolo[3,4-b][1,3,4]thiadiazin-7-yl)acetic acid] | 100 | 100 |  |
| C=CCNC(=O)CC1Sc2nnc(Cc3ccc(Br)cc3)n2N=C1c1ccc(Cl)cc1 (centres unmarked) [Compound 35, N-allyl-2-(3-(4-bromobenzyl)-6-(4-chlorophenyl)-7H-[1,2,4]triazolo[3,4-b][1,3,4]thiadiazin-7-yl)acetamide] |  | 0 |  |
| O=C(O)CC1Sc2nnc(Cc3ccc(Br)cc3)n2N=C1c1ccc(Br)cc1 (centres unmarked) [Compound 19, 2-(3-(4-bromobenzyl)-6-(4-bromophenyl)-7H-[1,2,4]triazolo[3,4-b][1,3,4]thiadiazin-7-yl)acetic acid] | 67 | 90 |  |
| O=C(CC1Sc2nnc(Cc3ccc(-c4ccccc4)cc3)n2N=C1c1ccc(Cl)c(Cl)c1)NS(=O)(=O)c1ccccc1 (centres unmarked) [Compound 40] |  |  | inhibition at 10 µM (recombinant MtbUGM): 85%; inhibition at 50 µM (recombinant MtbUGM; [4]): 100%; inhibition at 100 µM (recombinant MtbUGM): 100% |
| O=C(O)CC1Sc2nnc(-c3ccc(Br)cc3)n2N=C1c1ccc(Cl)cc1 (centres unmarked) [Compound 26, 2-(3-(4-bromophenyl)-6-(4-chlorophenyl)-7H-[1,2,4]triazolo[3,4-b][1,3,4]thiadiazin-7-yl)acetic acid] | 23 | 41 |  |
| Cn1cnc(S(=O)(=O)NC(=O)CC2Sc3nnc(Cc4ccc(Br)cc4)n3N=C2c2ccc(Cl)cc2)c1 (centres unmarked) [Compound 38] |  |  | inhibition at 50 µM (recombinant MtbUGM; [4]): 36%; inhibition at 100 µM (recombinant MtbUGM): 68% |
| O=C(CC1Sc2nnc(Cc3ccc(Br)cc3)n2N=C1c1ccc(Cl)cc1)NS(=O)(=O)c1cccs1 (centres unmarked) [Compound 36] |  |  | inhibition at 10 µM (recombinant MtbUGM): 18%; inhibition at 50 µM (recombinant MtbUGM; [4]): 87%; inhibition at 100 µM (recombinant MtbUGM): 100% |
| Cc1ccc(C2=Nn3c(Cc4ccc(Br)cc4)nnc3SC2CC(=O)O)cc1 (centres unmarked) [Compound 21, 2-(3-(4-bromobenzyl)-6-(p-tolyl)-7H-[1,2,4]triazolo[3,4-b][1,3,4]thiadiazin-7-yl)acetic acid] | 32 | 63 |  |
| O=C(O)CC1Sc2nnc(Cc3ccc(Br)cc3)n2N=C1c1ccc(Cl)cc1 (centres unmarked) [Compound 11, 2-(3-(4-bromobenzyl)-6-(4-chlorophenyl)-7H-[1,2,4]triazolo[3,4-b][1,3,4]thiadiazin-7-yl)acetic acid] | 36 | 72 | IC50 (recombinant MtbUGM; Table 4): 80 ± 29 µM; CeUGM % Inhibition at 10 μM (CeUGM): 53.5 ± 3.0%; Effective inhibitor of C. elegans growth at 250 μM (C. elegans; Table 8): No; MIC (M. smegmatis [1]; Table 4): 500 µM (≈ 239 µg/mL) |
| O=C(O)CC1Sc2nnc(Cc3ccc(Br)cc3)n2N=C1c1ccc(C(F)(F)F)cc1 (centres unmarked) [Compound 20, 2-(3-(4-bromobenzyl)-6-(4-(trifluoromethyl)phenyl)-7H-[1,2,4]triazolo[3,4-b][1,3,4]thiadiazin-7-yl)acetic acid] | 11 | 57 |  |
| Cc1ccc(C2=Nn3c(Cc4ccc(Br)cc4)nnc3SC2CC(=O)O)cc1C (centres unmarked) [Compound 17, 2-(3-(4-bromobenzyl)-6-(3,4-dimethylphenyl)-7H-[1,2,4]triazolo[3,4-b][1,3,4]thiadiazin-7-yl)acetic acid] | 41 | 80 |  |
| O=C(O)CC1Sc2nnc(Cc3ccc(Br)cc3)n2N=C1c1ccc(Cl)c(Cl)c1 (centres unmarked) [Compound 16, 2-(3-(4-bromobenzyl)-6-(3,4-dichlorophenyl)-7H-[1,2,4]triazolo[3,4-b][1,3,4]thiadiazin-7-yl)acetic acid] | 78 | 95 |  |
| COC(=O)C(Cc1ccc(I)cc1)Nc1nc(-c2ccc(Cl)c(Cl)c2)cs1 (centres unmarked) [Compound 10, Methyl 2-((4-(3,4-dichlorophenyl)thiazol-2-yl)amino)-3-(4-iodophenyl)propanoate] |  |  | inhibition at 50 µM (recombinant MtbUGM; 50 μM compound (FIG. 1), read-out: Inhibition of MtbUGM activity): 30%; Effective inhibitor of C. elegans growth at 250 μM (C. elegans; Table 7): No; Mycobacterial growth inhibition (in words) (M. smegmatis [2]): no mycobacterial growth inhibition was observed |
| O=C(O)CC1Sc2nnc(Cc3ccc4ccccc4c3)n2N=C1c1ccc(Cl)cc1 (centres unmarked) [Compound 30, 2-(6-(4-chlorophenyl)-3-(naphthalen-2-ylmethyl)-7H-[1,2,4]triazolo[3,4-b][1,3,4]thiadiazin-7-yl)acetic acid] | 49 | 88 |  |
| CS(=O)(=O)NC(=O)CC1Sc2nnc(Cc3ccc(Br)cc3)n2N=C1c1ccc(Cl)cc1 (centres unmarked) [Compound 12, 2-(3-(4-bromobenzyl)-6-(4-chlorophenyl)-7H-[1,2,4]triazolo[3,4-b][1,3,4]thiadiazin-7-yl)-N-(methylsulfonyl)acetamide] | 50 | 58 | IC50 (recombinant MtbUGM; Table 4): 108 ± 42 µM; CeUGM % Inhibition at 10 μM (CeUGM): 68.1 ± 2.1%; Effective inhibitor of C. elegans growth at 250 μM (C. elegans; Table 8): No; MIC (M. smegmatis [1]; Table 4): 500 µM (≈ 277 µg/mL) |
| COC(=O)CC1Sc2nnc(-c3cccs3)n2N=C1c1ccc(Cl)cc1 (centres unmarked) [Compound 32, Methyl-2-(6-(4-chlorophenyl)-3-(thiophen-2-yl)-7H-[1,2,4]triazolo[3,4-b][1,3,4]thiadiazin-7-yl)acetate] |  | 20 |  |
